The results in this text go back to patent publication EP0308020A2, “5-(aryl and heteroaryl)-6-(aryl and heteroaryl)-1,2-dihydro-2-oxo 3-pyridinecarboxylic acids and derivatives thereof” (Merck & Co., Inc., priority 1987, dated 1989).

Holding throughout (test): Agar diffusion assay for antibacterial activity (MIC)
Holding throughout (assay type): cell-based

Experiment [1] deals with Staphylococcus aureus MB 4310. To be noted: read-out: Minimum inhibitory conc. As to the method:
(§1) A stock solution of each test compound was prepared at a concentration of 1.28 mg/ml using sterile distilled water. After initial solubilization, two-fold dilutions were prepared and added as one-ml portions to 15 x 100 mm petri plates. A nine-ml portion of trypticase soy agar (TSA) was melted and added to each plate. The test compound and agar were mixed and allowed to cool. […] Controls were prepared using norfloxacin, coumermycin A-1, or novobiocin, and solvent.
(§2) Each plate was inoculated using a multipoint inoculator with 10⁵ colony-forming units (cfu) of the appropriate bacterium. Each bacterium was stored at -70°C before use and cultured in trypticase soy broth (TSB) at 35°C for 18 hours. The cultures, containing ca. 10⁹ cfu/ml, were diluted as necessary with TSB to provide concentrations of 10⁵ cfu/inoculation spot. The test plates were then incubated at 35°C for 20 hours. Minimum inhibitory concentrations (MIC) for each compound was the lowest concentration that allowed no growth, a barely visible haze, of five or fewer discrete colonies.
(§3) Table VI includes biological test results for representative compounds of this invention using the agar diffusion assay described above. The particular bacterial strains used are representative of organisms for which the compounds are useful as antibacterial agents.

Experiment [2] relates to Pseudomonas aeruginosa MB 5160 (Norfloxacin-resistant strain). To be noted: 20 h, read-out: Minimum inhibitory conc. The method, then: as §1, §2, §3
The test system of the next experiment is Escherichia coli MB 2891. The following applies: read-out: Minimum inhibitory conc. As to the method: as §1, §2, §3
In experiment [3] the test system is Streptococcus faecalis MB 2864. The following applies: Enterococcus faecalis, read-out: Minimum inhibitory conc. The method, then: as §1, §2, §3
Experiment [4] concerns Proteus mirabilis MB 2830. To be noted: read-out: Minimum inhibitory conc. The method, then: as §1, §2, §3
The test system of experiment [5] is Pseudomonas aeruginosa MB 2835. To be noted: MB2835, Ps. aer., strain MB 2835, trypticase soy agar, 10⁵ cfu, 35°C, 20 hours, read-out: Minimum inhibitory conc. As to the method:
as §1, §2, §3

Experiment [6] has as its system Escherichia coli MB 5158 (Norfloxacin-resistant strain). To be noted: 20 h, read-out: Minimum inhibitory conc. As to the method:
as §1, §2, §3

Experiment [7] has as its system Staphylococcus aureus MB 2865. To be noted: read-out: Minimum inhibitory conc. As to the method:
as §1, §2, §3

Experiment [8] deals with Klebsiella pneumoniae MB 4005. The following applies: read-out: Minimum inhibitory conc. As to the method:
as §1, §2, §3

The subject of the next experiment is Escherichia coli MB 5157. To be noted: read-out: Minimum inhibitory conc. As to the method: as §1, §2, §3
The mark [9] stands for this setting: MB4310, St. aur., strain MB 4310, trypticase soy agar, 10⁵ cfu, 35°C, 20 hours.
Setting [10] is: MB2891, E. coli, strain MB 2891, trypticase soy agar, 10⁵ cfu, 35°C, 20 hours.
Setting [11] is: MB2864, Str. fae., strain MB 2864, trypticase soy agar, 10⁵ cfu, 35°C, 20 hours.
Where [12] appears, read: MB2830, Pr. mir., strain MB 2830, trypticase soy agar, 10⁵ cfu, 35°C, 20 hours.
Setting [13] is: MB2865, St. aur., strain MB 2865, trypticase soy agar, 10⁵ cfu, 35°C, 20 hours.
[14] abbreviates: MB4005, K. pneu., strain MB 4005, trypticase soy agar, 10⁵ cfu, 35°C, 20 hours.
Setting [15] is: MB5157, E. coli, strain MB 5157, trypticase soy agar, 10⁵ cfu, 35°C, 20 hours.

In brackets after ≈: the same amount, converted by molar mass. Where two headings read alike, the source gives them in different places.

On to `C[N+](C)([O-])c1ccc(-c2[nH]c(=O)c(C(=O)O)cc2-c2ccc(O)cc2)cc1` [Example 50], for which the MIC was 8 µg/mL (≈ 21.8 µM) in [1] (setting [9]); > 128 µg/mL in experiment [2]; 8 µg/mL (≈ 21.8 µM) in the experiment with Escherichia coli MB 2891 (setting [10]); 16 µg/mL (≈ 43.7 µM) in [3] (setting [11]); 128 µg/mL (≈ 349 µM) in [4] (setting [12]); > 128 µg/mL in experiment [5]. For the same compound, the MIC in experiment [6] was > 128 µg/mL; in experiment [7] (setting [13]), 4 µg/mL (≈ 10.9 µM); in [8] (setting [14]), 16 µg/mL (≈ 43.7 µM); in the experiment with Escherichia coli MB 5157 (setting [15]), 8 µg/mL (≈ 21.8 µM).
Consider `CN(C)c1ccc(-c2[nH]c(=O)c(C(=O)O)cc2-c2ccc(O)cc2)cc1F` [Example 34], for which the MIC in experiment [1] (setting [9]) is 8 µg/mL (≈ 21.7 µM); in experiment [2], > 128 µg/mL; in the experiment with Escherichia coli MB 2891 (setting [10]) it was 4 µg/mL (≈ 10.9 µM); in [3] (setting [11]) it was 16 µg/mL (≈ 43.4 µM); in [4] (MB2830, 20 h), > 128 µg/mL; in [5] it was > 128 µg/mL. For the same compound, the MIC in experiment [6] was > 128 µg/mL; in experiment [7] (setting [13]), 2 µg/mL (≈ 5.43 µM); in [8] (setting [14]), 16 µg/mL (≈ 43.4 µM); in the experiment on Escherichia coli MB 5157 (setting [15]), 16 µg/mL (≈ 43.4 µM).
Regarding `O=C(O)c1cc(-c2ccc(F)cc2)c(-c2ccc(N3CCOCC3)cc2)[nH]c1=O` [Example 43], the MIC was 4 µg/mL (≈ 10.1 µM) in experiment [1] (setting [9]); > 128 µg/mL in [2]; 16 µg/mL (≈ 40.6 µM) in the experiment on Escherichia coli MB 2891 (setting [10]); 64 µg/mL (≈ 162 µM) in experiment [3] (setting [11]); 128 µg/mL (≈ 325 µM) in experiment [4] (setting [12]); > 128 µg/mL in experiment [5]. Besides, the MIC was > 128 µg/mL in experiment [6], 4 µg/mL (≈ 10.1 µM) in experiment [7] (setting [13]), 16 µg/mL (≈ 40.6 µM) in experiment [8] (setting [14]) and 8 µg/mL (≈ 20.3 µM) in the experiment on Escherichia coli MB 5157 (setting [15]).
Regarding `C[S+]([O-])c1ccc(-c2[nH]c(=O)c(C(=O)O)cc2-c2ccc(F)cc2)cc1` (stereo not shown) [Example 48], the MIC in experiment [1] (MB4310, 20 h) is > 128 µg/mL; in [2], > 128 µg/mL; in the experiment on Escherichia coli MB 2891 (MB2891, 20 h), > 128 µg/mL; in experiment [3] (MB2864, 20 h) it was > 128 µg/mL; in experiment [4] (MB2830, 20 h), > 128 µg/mL; in [5], > 128 µg/mL. For the same compound, the MIC in experiment [6] is > 128 µg/mL; in [7] (MB2865, 20 h) it was > 128 µg/mL; in experiment [8] (MB4005, 20 h) it was > 128 µg/mL; in the experiment on Escherichia coli MB 5157 (MB5157, 20 h), > 128 µg/mL.
Consider `O=C(O)c1cc(-c2ccc(F)cc2)c(-c2ccc(N3CCCCC3)cc2)[nH]c1=O` [Example 42], for which the MIC was 1 µg/mL (≈ 2.55 µM) in experiment [1] (setting [9]); > 128 µg/mL in experiment [2]; > 128 µg/mL in the experiment with Escherichia coli MB 2891 (MB2891, 20 h); 64 µg/mL (≈ 163 µM) in [3] (setting [11]); > 128 µg/mL in [4] (MB2830, 20 h); > 128 µg/mL in [5]. Further, the MIC in experiment [6] is > 128 µg/mL; in experiment [7] (setting [13]) it was 1 µg/mL (≈ 2.55 µM); in experiment [8] (MB4005, 20 h) it was > 128 µg/mL; in the experiment on Escherichia coli MB 5157 (MB5157, 20 h) it was > 128 µg/mL.
As to `CN1CCN(c2ccc(-c3[nH]c(=O)c(C(=O)O)cc3-c3ccc(F)cc3)cc2)CC1` [Example 44], the MIC in [1] (setting [9]) is 16 µg/mL (≈ 39.3 µM); in experiment [2], > 128 µg/mL; in the experiment on Escherichia coli MB 2891 (setting [10]), 8 µg/mL (≈ 19.6 µM); in experiment [3] (setting [11]), 128 µg/mL (≈ 314 µM); in [4] (MB2830, 20 h), > 128 µg/mL; in experiment [5], > 128 µg/mL. In addition, the MIC in experiment [6] is > 128 µg/mL; in experiment [7] (setting [13]) it was 32 µg/mL (≈ 78.5 µM); in [8] (setting [14]), 32 µg/mL (≈ 78.5 µM); in the experiment on Escherichia coli MB 5157 (setting [15]), 16 µg/mL (≈ 39.3 µM).
As to `CN(C)c1ccc(-c2c(-c3ccc(O)cc3)cc(C(=O)O)c(=O)n2C)cc1` [Example 51, 6-[4-(Dimethylamino)phenyl]-1,2-dihydro-5-(4-hydroxyphenyl)-1-methyl-2-oxo-3-pyridinecarboxylic acid], the MIC in experiment [1] (setting [9]) is 0.5 µg/mL (≈ 1.37 µM); in [2], > 128 µg/mL; in the experiment on Escherichia coli MB 2891 (setting [10]), 0.5 µg/mL (≈ 1.37 µM); in experiment [3] (setting [11]), 128 µg/mL (≈ 351 µM); in experiment [4] (setting [12]), 32 µg/mL (≈ 87.8 µM); in [5], > 128 µg/mL. The MIC is > 128 µg/mL in experiment [6], 1 µg/mL (≈ 2.74 µM) in experiment [7] (setting [13]), 16 µg/mL (≈ 43.9 µM) in experiment [8] (setting [14]) and 2 µg/mL (≈ 5.49 µM) in the experiment on Escherichia coli MB 5157 (setting [15]).
